Source: patent US6737383B1, “Herbicidal oxadiazolidines” (priority 1999, dated 2004)

Assays:
[1] = system: Setaria faberii (SETFA); test: Test F preemergence, alone and in mixture with rimsulfuron, SETFA; assay type: in vivo; conditions: 21 days after treatment, 0-100 scale
Protocol: Abutilon theophrasti (ABUTH), Chenopodium album (CHEAL), Amaranthus rudis (AMATA), Setaria faberii (SETFA), Panicum dichotomiflorum (PANDI), and Digitaria sanguinalis (DIGSA) were grown from seed in pots of an artificial potting mixture in a greenhouse. Compounds of the present invention were applied at 70 and 105 g ai/ha preemergence. Rimsulfuron was applied at 8.8 and 17.5 g ai/ha. Mixtures of the compounds of the present invention and rimsulfuron were also applied.
(§1) Following application, the plants were maintained by watering as needed. A fertilizer solution of Peter's 20-20-20 (10 pounds/5 gallons of water) plus Sprint 330, a Iron Chelate micronutrient, (113.5 grams/5 gallons of water) was injected into the water with an Anderson fertilizer injection system to provide approximately 219 ppm of nitrogen with each watering. Artificial lighting was used to supplement natural light to produce a 14 hour photoperiod and: an additional one hour light period was used between 1:00 am to 2:00 am for a night interruption. Greenhouse temperatures were targeted for 27° C. in the day and 21° C. at night. At 21 days after treatment, all plants were evaluated for injury as compared to control plants that were sprayed only with non-phytotoxic solvent.
Colby's equation was used to calculate the expected additive herbicidal effect of the mixtures of Compound 21 and the mixture partners listed above. […]

[2] = system: annual bluegrass; test: Test E annual bluegrass; assay type: in vivo, Poa annua; conditions: Preemergence
[3] = system: certain weeds; test: Test F overall statement on synergism with rimsulfuron (Colby's equation); assay type: in vivo; conditions: combinations with rimsulfuron, preemergence
Protocol: as §1, with “Abutilon theophrasti (ABUTH), Chenopodium album (CHEAL), Amaranthus rudis (AMATA), Setaria […]), Panicum dichotomiflorum (PANDI), and Digitaria sanguinalis (DIGSA) were grown from seed in pots of an artificial potting mixture in a greenhouse. Compounds of the present invention were applied at 70 and 105 g ai/ha preemergence. Rimsulfuron was applied at 8.8 and 17.5 g ai/ha. Mixtures of the compounds of the present invention and rimsulfuron were also applied. Following” for “Following”, “solvent. […] Colby's equation was used to calculate the expected additive herbicidal effect of the mixtures of Compound 21 and the mixture partners listed above. […]” for “solvent.”

[4] = system: large crabgrass; test: Test D large crabgrass; assay type: in vivo, Digitaria sanguinalis; conditions: Postemergence, 0 to 100 scale
[5] = system: guineagrass; test: Test D guineagrass; assay type: in vivo, Panicum maximum; conditions: Postemergence, 0 to 100 scale
[6] = system: sugar beet; test: Test E sugar beet; assay type: in vivo, Beta vulgaris; conditions: Preemergence
[7] = system: wild mustard; test: Test E wild mustard; assay type: in vivo, Sinapis arvensis; conditions: Postemergence
Protocol: […] A mixture of sandy loam soil and greenhouse potting mix in a 60:40 ratio was used for the postemergence test.
Plantings of these crops and weed species were adjusted to produce plants of appropriate size for the postemergence test. All plant species were grown using normal greenhouse practices. Crop and weed species include annual bluegrass (Poa annua), blackgrass (Alopecurus myosuroides), black nightshade (Solanum nigra), chickweed (Stellaria media), common poppy (Papaver rhoeas), deadnettle (Lamium amplexicaule), downy brome (Bromus tectorum), field violet (Viola arvensis), galium (Galium aparine), green foxtail (Setaria viridis), Italian ryegrass (Lolium multiflorum), jointed goatgrass (Aegilops cylindrica), kochia (Kochia scoparia), lambsquarters (Chenopodium album), littleseed canarygrass (Phalaris minor), rape (Brassica napus), redroot pigweed (Amaranthus retroflexus), Russian thistle (Salsola kali), scentless chamomile (Matricaria inodora), spring barley (Hordeum vulgare), sugar beet (Beta vulgaris), sunflower (Helianthus annuus), ivyleaf speedwell (Veronica hederaefolia), spring wheat (Triticum aestivum), winter wheat (Triticum aestivum), wild buckwheat (Polygonum convolvulus), wild mustard (Sinapis arvensis), wild oat (Avena fatua), windgrass (Apera spica-venti) and winter barley (Hordeum vulgare).
Treated plants and untreated controls were maintained in a greenhouse for approximately 21 to 28 days, after which all treated plants were compared to untreated controls and visually evaluated. […] A dash response (-) means no test result.

[8] = system: spring wheat; test: Test E spring wheat; assay type: in vivo, Triticum aestivum; conditions: Preemergence
[9] = system: wild oat; test: Test E wild oat; assay type: in vivo, Avena fatua; conditions: Postemergence
Method in brief: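 For postemergence, application to 1- to 4-leaf plants growing in a 60:40 sandy loam–potting mix substrate. Formulation: non-phytotoxic solvent mixture plus surfactant. Untreated controls served as the reference for the visual rating after ~21–28 days.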

[10] = system: spring barley; test: Test E spring barley; assay type: in vivo, Hordeum vulgare; conditions: Preemergence
[11] = system: common ragweed; test: Test D common ragweed; assay type: in vivo, Ambrosia elatior; conditions: Postemergence, 0 to 100 scale
[12] = Rate 125 g/ha, 0 to 100 scale (0 no effect, 100 complete control)
[13] = Rate 500 g/ha, 0 to 100 scale where 0 is no effect and 100 is complete control
[14] = Rate 16 g/ha, 0 no injury, 100 complete control
[15] = Rate 32 g/ha, 0 no injury, 100 complete control
[16] = Rate 64 g/ha, 0 no injury, 100 complete control
[17] = Rate 125 g/ha, 0 no injury, 100 complete control
[18] = Rate 500 g/ha, 0 to 100 scale, 0 no effect, 100 complete control
[19] = Rate 250 g/ha, 0 to 100 scale where 0 is no effect and 100 is complete control
[20] = Rate 250 g/ha, 0 to 100 scale (0 no effect, 100 complete control)

CC(C)N(C(=O)n1oc(=O)n(C(C)C)c1=O)c1ccc(F)cc1 [Compound 131]
SETFA Observed ([1]; Alone: Cmpd. rate 70, Rimsulfuron 0): 35%
SETFA Observed ([1]; Alone: Cmpd. rate 105, Rimsulfuron 0): 65%
Plant response rating, Annual bluegras [2, 12]: 70
Annual bluegras plant response rating (0 to 100 scale) ([2]; Rate 250 g/ha): 80
Plant response rating, Annual bluegras [2, 13]: 100
Weed control of combination with rimsulfuron compared with expectation from Colby's equation [3]: better control of certain weeds than expected
Plant response rating Large crabgrass [4, 14]: 90
Plant response rating Large crabgrass [4, 15]: 100
Plant response rating Large crabgrass [4, 16]: 100
Plant response rating Large crabgrass [4, 17]: 100
Plant response rating Large crabgrass ([4]; Rate 250 g/ha): 100
Plant response rating, Guineagrass [5, 14]: 0
Plant response rating, Guineagrass [5, 15]: 20
Plant response rating, Guineagrass [5, 16]: 100
Plant response rating, Guineagrass [5, 17]: 100
Plant response rating, Guineagrass ([5]; Rate 250 g/ha): 100
Plant response rating, Sugar beet [6, 12]: 80
Sugar beet plant response rating (0 to 100 scale) ([6]; Rate 250 g/ha): 60
Plant response rating, Sugar beet [6, 13]: 90
Plant response rating, Wild mustard ([7]; Rate 62 g/ha, 0 to 100 scale): 30
Plant response rating, Wild mustard ([7]; Rate 125 g/ha, 0 to 100 scale): 0
Plant response rating, Wild mustard [7, 18]: 30
Wild mustard plant response rating [7, 19]: 0
Plant response rating, Spring Wheat [8, 12]: 70
Spring Wheat plant response rating (0 to 100 scale) ([8]; Rate 250 g/ha): 100
Plant response rating, Spring Wheat [8, 13]: 100
Plant response rating, Wild oat ([9]; Rate 62 g/ha, 0 to 100 scale): 40
Plant response rating, Wild oat ([9]; Rate 125 g/ha, 0 to 100 scale): 0
Plant response rating, Wild oat [9, 18]: 70
Wild oat plant response rating [9, 19]: 20
Plant response rating, Spring Barley [10, 12]: 20
Spring Barley plant response rating (0 to 100 scale) ([10]; Rate 250 g/ha): 70
Plant response rating, Spring Barley [10, 13]: 85
Plant response rating, C. ragweed [11, 14]: 0
Plant response rating, C. ragweed [11, 15]: 0
Plant response rating, C. ragweed [11, 16]: 0
Plant response rating, C. ragweed [11, 17]: 90
Plant response rating, C. ragweed ([11]; Rate 250 g/ha): 100

CC(C)N(C(=O)n1oc(=O)n(C(C)C)c1=O)c1ccc(Cl)cc1 [Compound 114]
Plant response rating, Annual bluegras [2, 12]: 50
Plant response rating, Annual bluegras ([2]; Rate 250 g/ha, 0 to 100 scale): 50
Plant response rating, Annual bluegras [2, 13]: 60
Plant response rating, Sugar beet [6, 12]: 20
Plant response rating, Sugar beet ([6]; Rate 250 g/ha, 0 to 100 scale): 40
Plant response rating, Sugar beet [6, 13]: 50
Plant response rating, Wild mustard ([7]; Rate 125 g/ha, 0 to 100 scale): 75
Plant response rating, Wild mustard [7, 20]: 50
Plant response rating, Wild mustard [7, 18]: 70
Plant response rating, Spring Wheat [8, 12]: 0
Plant response rating, Spring Wheat ([8]; Rate 250 g/ha, 0 to 100 scale): 10
Plant response rating, Spring Wheat [8, 13]: 20
Plant response rating, Wild oat ([9]; Rate 125 g/ha, 0 to 100 scale): 0
Plant response rating, Wild oat [9, 20]: 0
Plant response rating, Wild oat [9, 18]: 0
Plant response rating, Spring Barley [10, 12]: 0
Plant response rating, Spring Barley ([10]; Rate 250 g/ha, 0 to 100 scale): 0
Plant response rating, Spring Barley [10, 13]: 20
